Measured values reported in patent US10577378B2, “EIF4A-inhibiting compounds and methods related thereto” (eFFECTOR Therapeutics, Inc., priority 2015, dated 2020).

test system: MDA-MB-231 human breast cancer cells; assay: Cell proliferation assay (CellTiter-Glo, 72 hours treatment); type: cell-based; conditions: Homo sapiens; MDA-MB-231 cells, 72 hours at 37° C., CellTiter-Glo; read-out: MDA-MB-231 cell proliferation assay (IC50)
Method in brief: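 IC50 categories: under 100 nM +++, 100–1000 nM ++, above 1000 nM +, derived by sigmoidal curve fitting of CellTiter-Glo luminescence. Cells plated at 2,500 per well, dosed the following day and exposed 72 h at 37 °C versus DMSO control.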

Row | SMILES | IC50 [µM]
1 | COc1nc(Cl)cc2c1[C@]1(O)[C@H](O)[C@H](CN(C)C)[C@@H](c3ccccc3)[C@]1(c1ccc(C(F)(F)F)cc1)O2 (racemic) [144F, Rac-(5aR,6S,7S,8R,8aS)-3-chloro-7-((dimethylamino)methyl)-1-methoxy-6-phenyl-5a-(4-(trifluoromethyl)phenyl)-5a,6,7,8-tetrahydro-8aH-cyclopenta[4,5]furo[3,2-c]pyridine-8,8a-diol] | < 0.1
2 | CN(C)C(=O)[C@H]1[C@@H](O)[C@@]2(O)c3ncc(Cl)cc3O[C@@]2(c2ccc(C(F)F)cc2)[C@@H]1c1ccccc1 (single isomer, unassigned) [16F] | 0.1 to 1
3 | COc1cncc2c1[C@]1(O)[C@H](O)[C@H](CN3CCCCC3)[C@@H](c3ccccc3)[C@]1(c1ccc(C#N)cc1)O2 (single isomer, unassigned) [258F] | < 0.1
4 | N#Cc1ccc([C@@]23Oc4cc(Cl)cnc4[C@]2(O)[C@H](CO)C[C@H]3c2ccccc2)cc1 (racemic) [168F, Rac-4-((5aR,6S,8S,8aR)-3-chloro-8a-hydroxy-8-(hydroxymethyl)-6-phenyl-6,7,8,8a-tetrahydro-5aH-cyclopenta[4,5]furo[3,2-b]pyridin-5a-yl)benzonitrile] | > 1
5 | COc1cncc2c1[C@]1(O)[C@@H](CN)C[C@@H](c3ccccc3)[C@]1(c1ccc(C#N)cc1)O2 (racemic) [173F, Rac-4-((4bR,5R,7S,7aR)-5-(aminomethyl)-4b-hydroxy-4-methoxy-7-phenyl-4b,5,6,7-tetrahydro-7aH-cyclopenta[4,5]furo[2,3-c]pyridin-7a-yl)benzonitrile] | < 0.1
6 | COc1cncc2c1[C@]1(O)[C@H](O)[C@H](CN(C)Cc3ccnn3C)[C@@H](c3ccccc3)[C@]1(c1ccc(C#N)cc1)O2 (single isomer, unassigned) [250F] | > 1
7 | COc1nc(Cl)cc2c1[C@]1(O)[C@H](O)[C@H](CN3CC(C(F)F)C3)[C@@H](c3ccccc3)[C@]1(c1ccc(C#N)cc1)O2 (racemic) [217F, rac-4-((5aR,6S,7S,8R,8aS)-3-chloro-7-((3-(difluoromethyl)azetidin-1-yl)methyl)-8,8a-dihydroxy-1-methoxy-6-phenyl-6,7,8,8a-tetrahydro-5aH-cyclopenta[4,5]furo[3,2-c]pyridin-5a-yl)benzonitrile] | < 0.1
8 | O=S(=O)(c1ccccn1)[C@H]1[C@@H](O)[C@@]2(O)c3ncc(Cl)cc3O[C@@]2(c2ccc(Br)cc2)[C@@H]1c1ccccc1 (racemic) [163F, rac-(5aR,6S,7R,8S,8aS)-5a-(4-bromophenyl)-3-chloro-6-phenyl-7-(pyridin-2-ylsulfonyl)-5a,6,7,8-tetrahydro-8aH-cyclopenta[4,5]furo[3,2-b]pyridine-8,8a-diol] | 0.1 to 1
9 | COc1ccc2c(n1)O[C@@]1(c3ccc(C#N)cc3)[C@H](c3ccccc3)[C@@H](C(=O)N(C)C)[C@@H](O)[C@@]21O (racemic) [15F, Rac-(4bS,5R,6R,7S,7aR)-7a-(4-cyanophenyl)-4b,5-dihydroxy-2-methoxy-N,N-dimethyl-7-phenyl-4b,6,7,7a-tetrahydro-5H-cyclopenta[4,5]furo[2,3-b]pyridine-6-carboxamide] | > 1
10 | COc1cncc2c1[C@]1(O)[C@H](O)[C@H](C(=O)NCC(F)F)[C@@H](c3ccccc3)[C@]1(c1ccc(Br)cc1)O2 (racemic) [116F, Rac-(4bS,5R,6R,7S,7aR)-7a-(4-bromophenyl)-N-(2,2-difluoroethyl)-4b,5-dihydroxy-4-methoxy-7-phenyl-4b,6,7,7a-tetrahydro-5H-cyclopenta[4,5]furo[2,3-c]pyridine-6-carboxamide] | < 0.1
11 | COc1nc(Cl)cc2c1[C@]1(O)[C@H](O)[C@H](CN(C)C)[C@@H](c3ccccc3)[C@]1(c1ccc(C(F)F)cc1)O2 (racemic) [143F, Rac-(5aR,6S,7S,8R,8aS)-3-chloro-5a-(4-(difluoromethyl)phenyl)-7-((dimethylamino)methyl)-1-methoxy-6-phenyl-5a,6,7,8-tetrahydro-8aH-cyclopenta[4,5]furo[3,2-c]pyridine-8,8a-diol] | < 0.1
12 | COc1cncc2c1[C@]1(O)[C@H](O)[C@H](C(=O)NCc3ccnn3C)[C@@H](c3ccccc3)[C@]1(c1ccc(Br)cc1)O2 (racemic) [241F, rac-(4bS,5R,6R,7S,7aR)-7a-(4-bromophenyl)-4b,5-dihydroxy-4-methoxy-N-((1-methyl-1H-pyrazol-5-yl)methyl)-7-phenyl-4b,6,7,7a-tetrahydro-5H-cyclopenta[4,5]furo[2,3-c]pyridine-6-carboxamide] | < 0.1
13 | N#C[C@@H]1C[C@@H](c2ccccc2)[C@]2(c3ccc(Br)cc3)Oc3cc(Cl)cnc3[C@]12O (racemic) [47F, Rac-(5aR,6S,8S,8aR)-5a-(4-bromophenyl)-3-chloro-8a-hydroxy-6-phenyl-5a,7,8,8a-tetrahydro-6H-cyclopenta[4,5]furo[3,2-b]pyridine-8-carbonitrile] | > 1
14 | COC(=O)C1(F)[C@@H](O)[C@@]2(O)c3ncc(Cl)cc3O[C@@]2(c2ccc(Br)cc2)[C@@H]1c1ccccc1 (mixture of isomers) [58F, Rac-methyl (5aR,6S,8S,8aS)-5a-(4-bromophenyl)-3-chloro-7-fluoro-8,8a-dihydroxy-6-phenyl-5a,7,8,8a-tetrahydro-6H-cyclopenta[4,5]furo[3,2-b]pyridine-7-carboxylate] | > 1
15 | COc1cncc2c1[C@]1(O)[C@H](O)[C@H](CNCc3ccnn3C)[C@@H](c3ccccc3)[C@]1(c1ccc(C#N)cc1)O2 (racemic) [242F, Rac-4-((4bS,5R,6S,7S,7aR)-4b,5-dihydroxy-4-methoxy-6-((((1-methyl-1H-pyrazol-5-yl)methyl)amino)methyl)-7-phenyl-4b,5,6,7-tetrahydro-7aH-cyclopenta[4,5]furo[2,3-c]pyridin-7a-yl)benzonitrile] | 0.1 to 1
16 | CN(C)C(=O)[C@H]1[C@@H](O)[C@@]2(O)c3ncc(C#N)cc3O[C@@]2(c2ccc(C#N)cc2)[C@@H]1c1ccccc1 (single isomer, unassigned) [2F] | 0.1 to 1
17 | COc1cncc2c1[C@]1(O)[C@@H](CN)[C@H](CO)[C@@H](c3ccccc3)[C@]1(c1ccc(C#N)cc1)O2 (racemic) [171F, Rac-4-((4bR,5R,6R,7S,7aR)-5-(aminomethyl)-4b-hydroxy-6-(hydroxymethyl)-4-methoxy-7-phenyl-4b,5,6,7-tetrahydro-7aH-cyclopenta[4,5]furo[2,3-c]pyridin-7a-yl)benzonitrile] | 0.1 to 1
18 | CCNC[C@@H]1[C@@H](c2ccccc2)[C@]2(C3=CC=C(C#N)CC3)Oc3cncc(OC)c3[C@]2(O)[C@@H]1O (racemic) [70F, Rac-4-((4bS,5R,6S,7S,7aR)-6-((ethylamino)methyl)-4b,5-dihydroxy-4-methoxy-7-phenyl-4b,5,6,7-tetrahydro-7aH-cyclopenta[4,5]furo[2,3-c]pyridin-7a-yl)cyclohexa-1,3-diene-1-carbonitrile] | 0.1 to 1
19 | CC#CC1(O)C(C(=O)N(C)C)[C@@H](c2ccccc2)[C@]2(c3ccc(Br)cc3)Oc3cc(Cl)cnc3[C@]12O (mixture of isomers) [191F, Rac-(5aR,6S,8aS)-5a-(4-bromophenyl)-3-chloro-8,8a-dihydroxy-N,N-dimethyl-6-phenyl-8-(prop-1-yn-1-yl)-5a,7,8,8a-tetrahydro-6H-cyclopenta[4,5]furo[3,2-b]pyridine-7-carboxamide] | 0.1 to 1
20 | COc1nc(Cl)cc2c1[C@]1(O)[C@H](O)[C@H](CN)[C@@H](c3ccccc3)[C@]1(c1ccc(C#N)cc1)O2 (racemic) [294F, Rac-4-((5aR,6S,7S,8R,8aS)-7-(aminomethyl)-3-chloro-8,8a-dihydroxy-1-methoxy-6-phenyl-6,7,8,8a-tetrahydro-5aH-cyclopenta[4,5]furo[3,2-c]pyridin-5a-yl)benzonitrile] | < 0.1
21 | COc1cncc2c1[C@]1(O)[C@@H](CNCC(F)F)[C@H](CO)[C@@H](c3ccccc3)[C@]1(c1ccc(C#N)cc1)O2 (racemic) [182F, Rac-4-((4bR,5R,6R,7S,7aR)-5-(((2,2-difluoroethyl)amino)methyl)-4b-hydroxy-6-(hydroxyl-methyl)-4-methoxy-7-phenyl-4b,5,6,7-tetrahydro-7aH-cyclopenta[4,5]furo[2,3-c]pyridin-7a-yl)benzonitrile] | < 0.1
22 | COc1cncc2c1[C@]1(O)[C@@H](CNC(C)(C)C)[C@H](CO)[C@@H](c3ccccc3)[C@]1(c1ccc(Br)cc1)O2 (racemic) [226F, Rac-(4bR,5R,6R,7S,7aR)-7a-(4-bromophenyl)-5-((tert-butylamino)methyl)-6-(hydroxymethyl)-4-methoxy-7-phenyl-5,6,7,7a-tetrahydro-4bH-cyclopenta[4,5]furo[2,3-c]pyridin-4b-ol] | < 0.1
23 | N#Cc1ccc([C@@]23Oc4cc(Cl)cnc4[C@]2(O)[C@H](O)C[C@H]3c2ccccc2)cc1 (racemic) [128F, Rac-4-((5aR,6S,8R,8aS)-3-chloro-8,8a-dihydroxy-6-phenyl-6,7,8,8a-tetrahydro-5aH-cyclopenta[4,5]furo[3,2-b]pyridin-5a-yl)benzonitrile] | 0.1 to 1
24 | COc1nc(Cl)cc2c1[C@]1(O)[C@H](O)[C@H](CN3CCN(C)CC3)[C@@H](c3ccccc3)[C@]1(c1ccc(C#N)cc1)O2 (single isomer, unassigned) [198Fa] | < 0.1
25 | COC(=O)[C@@H]1C(c2ccccc2)[C@]2(c3ccc(I)cc3)Oc3cncc(OC)c3[C@]2(O)[C@@H]1O (mixture of isomers) [193F, Rac-Methyl (4bS,5R,6R,7aR)-4b,5-dihydroxy-7a-(4-iodophenyl)-4-methoxy-7-phenyl-4b,6,7,7a-tetrahydro-5H-cyclopenta[4,5]furo[2,3-c]pyridine-6-carboxylate] | 0.1 to 1
26 | N#Cc1ccc([C@@]23Oc4cc(Cl)cnc4[C@]2(O)[C@@H]2OC[C@@H]2[C@H]3c2ccccc2)cc1 (racemic) [61F, rac-4-((2aS,3S,3aR,8bS,8cR)-6-chloro-8b-hydroxy-3-phenyl-2a,3,8b,8c-tetrahydrooxeto[3″,2″:4′,5′]cyclopenta[1′,2′:4,5]furo[3,2-b]pyridin-3a(2H)-yl)benzonitrile] | > 1
